This note sets out measurements from patent US20020022718A1, “Genes identified as required for proliferation of E. coli” (priority 1999, published 2002).

≈ marks a conversion by molar mass, not a printed value. Where two headings read alike, the source gives them in different places. Bridge positions count the residues as written; N and C are the ends. Square brackets hold non-standard residues; d marks the D form. Peptide text beside a SMILES is read from it. * marks the point of attachment. Ileψ(thiazoline)Cys = CC[C@H](C)[C@H](N)C1=N[C@H](C(=O)*)CS1; dOrn = NCCC[C@@H](N)C(=O)O

The assay deals with Bacterial cells expressing antisense nucleic acid complementary to rplL and rplJ (50S ribosomal subunit proteins). Put plainly: microbe, parasite or virus in culture. Type of assay: cell-based, E. coli. Conditions: for IC50: Escherichia coli; for Fold Increase in Sensitivity: IC50 −IPTG versus +IPTG (400 μM); for Sensitivity Increased?: significant decrease in IC50 in the presence of inducer IPTG. The procedure: Two-fold dilution series of antibiotics with a known mechanism of action are generated in the culture media selected for further assay development that has been supplemented with the antibiotic used to maintain the construct. A panel of test antibiotics known to act on different pathways is tested side by side with three to four wells being used to evaluate the effect of a test antibiotic on cell growth at each concentration. Equal volumes of test antibiotic and cells are added to the wells of a 384 well microtiter plate and mixed. Cells are prepared as described above using the media selected for assay development supplemented with the antibiotic required to maintain the antisense construct and are diluted 1:100 in identical media immediately prior to addition to the microtiter plate wells. For a control, cells are also added to several wells that contain the solvent used to dissolve the antibiotics but no antibiotic. Cell growth is monitored continuously by incubation at 37° C. in a microtiter plate reader monitoring the OD600 of the wells over an 18-hour period. […] A plot of percent inhibition against log[antibiotic concentration] allows extrapolation of an IC50 value for each antibiotic.
The culture media selected for use in the assay is supplemented with inducer at concentrations shown to inhibit cell growth by 50% and 80% as described above and the antibiotic used to maintain the construct. Two fold dilution series of the panel of test antibiotics used above are generated in each of these media. Several antibiotics are tested side by side with three to four wells being used to evaluate the effects of an antibiotic on cell growth at each concentration, in each media. Equal volumes of test antibiotic and cells are added to the wells of a 384 well microtiter plate and mixed. Cells are prepared as described above using the media selected for use in the assay supplemented with the antibiotic required to maintain the antisense construct. […] Immediately prior to addition to the microtiter plate wells, the cultures are adjusted to an appropriate OD600 (typically 0.002) by dilution into warm (37° C.) sterile media supplemented with identical concentrations of the inducer and antibiotic used to maintain the antisense construct. For a control, cells are also added to several wells that contain solvent used to dissolve test antibiotics but which contain no antibiotic. Cell growth is monitored continuously by incubation at 37° C. in a microtiter plate reader monitoring the OD600 of the wells over an 18-hour period. […] A plot of percent inhibition against log[antibiotic concentration] allows extrapolation of an IC50 value for each antibiotic.
Antibiotics of various chemical classes and modes of action were purchased from Sigma Chemicals (St. Louis, Mo.). Stock solutions were prepared by dissolving each antibiotic in an appropriate aqueous solution based on information provided by the manufacturer. The final working solution of each antibiotic contained no more than 0.2% (w/v) of any organic solvent. To determine their potency against a bacterial strain engineered for expression of an antisense complementary to a proliferation-required gene encoding 50S ribosomal protein, each antibiotic was serially diluted two or three fold in growth medium supplemented with the appropriate antibiotic for maintenance of the anti-sense construct. At least ten dilutions were prepared for each antibiotic. 25 μL aliquots of each dilution were transferred to discrete wells of a 384-well microplate (the assay plate) using a multi-channel pipette. Quadruplicate wells were used for each dilution of an antibiotic under each treatment condition (plus and minus inducer). Each assay plate contained twenty wells for cell growth controls (growth media replacing antibiotic), ten wells for each treatment (plus and minus inducer, in this example IPTG).

Broadly, the IC50 is the point on the concentration scale where inhibition reaches its midpoint. In the case of `CC(=O)O[C@H]1C[C@@]2(C)[C@@H](C[C@@H](O)[C@H]3[C@@]4(C)CC[C@@H](O)[C@@H](C)[C@@H]4CC[C@@]32C)/C1=C(\CCC=C(C)C)C(=O)O` [Fusidic acid], the “Fold Increase in Sensitivity” value is on record as 94 and the “Sensitivity Increased?” value is recorded as “Yes”. Further, under “read-out: IC50 (+IPTG)”, the IC50 stood at 0.641 µg/mL (≈ 1.24 µM). Besides, the IC50 (read-out: IC50 (−IPTG)) amounted to 60 µg/mL (≈ 116 µM).
`CN(C)c1ccc(O)c2c1C[C@H]1C[C@H]3[C@H](N(C)C)C(O)=C(C(N)=O)C(=O)[C@@]3(O)C(O)=C1C2=O` [Minocycline]: the “Fold Increase in Sensitivity” value was determined as 172. The IC50 (read-out: IC50 (+IPTG)) amounted to 0.0039 µg/mL (≈ 0.00852 µM). In addition, under “read-out: IC50 (−IPTG)”, the half-inhibitory concentration (IC50) was found to be 0.668 µg/mL (≈ 1.46 µM).
In the case of Gentamicin, the “Fold Increase in Sensitivity” value was 141 and the “Sensitivity Increased?” value is reported as “Yes”. The “IC50 (+IPTG)” value (antisense to rplL and rplJ induced, 400 μM IPTG) was 0.01919 µg/mL. Moreover, the “IC50 (−IPTG)” value (non-induced cells, 0 μM IPTG) worked out at 2.715 µg/mL.
For `C[C@H]1c2cccc(O)c2C(=O)C2=C(O)[C@]3(O)C(=O)C(C(N)=O)=C(O)[C@@H](N(C)C)[C@@H]3[C@@H](O)[C@@H]21` [Doxycycline], the “Fold Increase in Sensitivity” value is reported as 15. Further, the 50% inhibitory concentration (IC50) (read-out: IC50 (+IPTG)) stood at 0.0278 µg/mL (≈ 0.0626 µM). Moreover, where the note is “read-out: IC50 (−IPTG)”, the IC50 stood at 0.413 µg/mL (≈ 0.929 µM).
For the compound `CC[C@H](C)[C@H](N)C1=N[C@H](C(=O)N[C@@H](CC(C)C)C(=O)N[C@H](CCC(=O)O)C(=O)N[C@H](C(=O)N[C@H]2CCCCNC(=O)[C@H](CC(N)=O)NC(=O)[C@@H](CC(=O)O)NC(=O)[C@H](Cc3cnc[nH]3)NC(=O)[C@@H](Cc3ccccc3)NC(=O)[C@H]([C@@H](C)CC)NC(=O)[C@@H](CCCN)NC2=O)[C@@H](C)CC)CS1` [Bacitracin] ({Ileψ(thiazoline)Cys}-L[dE]IK[dOrn]I[dF]H[dD]N; lactam 4-C), the “Fold Increase in Sensitivity” value came out at 1 and the “Sensitivity Increased?” value is on record as “No”. Where the note is “read-out: IC50 (+IPTG)”, the IC50 was 4.68 µg/mL (≈ 3.29 µM). Also, under “read-out: IC50 (−IPTG)”, the half-maximal inhibitory concentration (IC50) amounted to 4.08 µg/mL (≈ 2.87 µM).
On to `[H]/N=C(/N)N[C@H]1[C@H](O)[C@@H](O)[C@H](O[C@@H]2O[C@@H](C)[C@](O)(C=O)[C@H]2O[C@@H]2O[C@@H](CO)[C@H](O)[C@@H](O)[C@@H]2NC)[C@@H](N/C(N)=N\[H])[C@@H]1O` [Streptomycin], for which the “Fold Increase in Sensitivity” value came to 70 and the “Sensitivity Increased?” value is “Yes”. For the same compound, the IC50 (read-out: IC50 (+IPTG)) came to 0.161 µg/mL (≈ 0.277 µM). The IC50 (read-out: IC50 (−IPTG)) is 11.3 µg/mL (≈ 19.4 µM).
As for `O=C(N[C@H](CO)[C@H](O)c1ccc([N+](=O)[O-])cc1)C(Cl)Cl` [Chloramphenicol], the “Fold Increase in Sensitivity” value turned out to be 307 and the “Sensitivity Increased?” value was “Yes”. The IC50 (read-out: IC50 (+IPTG)) stood at 0.00152 µg/mL (≈ 0.00469 µM). The IC50 (read-out: IC50 (−IPTG)) amounted to 0.465 µg/mL (≈ 1.44 µM).
Take `CN(C)[C@@H]1C(O)=C(C(N)=O)C(=O)[C@@]2(O)C(O)=C3C(=O)c4c(O)cccc4[C@@](C)(O)[C@H]3C[C@@H]12` [Tetracycline]: the “Fold Increase in Sensitivity” value came to 109. The IC50 (read-out: IC50 (+IPTG)) worked out at 0.00183 µg/mL (≈ 0.00412 µM). Also, for the setting “read-out: IC50 (−IPTG)”, the IC50 was found to be 0.2 µg/mL (≈ 0.449 µM).
In the case of `CO[C@@]1(NC(=O)Cc2cccs2)C(=O)N2C(C(=O)O)=C(COC(N)=O)CS[C@@H]21` [Cefoxitin], the “Fold Increase in Sensitivity” value came to 1 and the “Sensitivity Increased?” value was “No”. The 50% inhibitory concentration (IC50) (read-out: IC50 (+IPTG)) was 2.48 µg/mL (≈ 5.81 µM). For the setting “read-out: IC50 (−IPTG)”, the 50% inhibitory concentration (IC50) was 2.78 µg/mL (≈ 6.51 µM).
Regarding `CO/N=C(\C(=O)N[C@@H]1C(=O)N2C(C(=O)O)=C(COC(C)=O)CS[C@H]12)c1csc(N)n1` [Cefotaxime], the “Fold Increase in Sensitivity” value was 1 and the “Sensitivity Increased?” value is recorded as “No”. The IC50 (read-out: IC50 (+IPTG)) worked out at 0.0242 µg/mL (≈ 0.053 µM). Moreover, where the note is “read-out: IC50 (−IPTG)”, the IC50 amounted to 0.0243 µg/mL (≈ 0.0534 µM).
For `CN[C@H](CC(C)C)C(=O)N[C@H]1C(=O)N[C@@H](CC(N)=O)C(=O)N[C@H]2C(=O)N[C@H]3C(=O)N[C@H](C(=O)N[C@H](C(=O)O)c4cc(O)cc(O)c4-c4cc3ccc4O)[C@H](O)c3ccc(c(Cl)c3)Oc3cc2cc(c3O[C@@H]2O[C@H](CO)[C@@H](O)[C@H](O)[C@H]2O[C@H]2C[C@](C)(N)[C@H](O)[C@H](C)O2)Oc2ccc(cc2Cl)[C@H]1O` [Vancomycin], the “Fold Increase in Sensitivity” value was determined as 2 and the “Sensitivity Increased?” value is recorded as “No”. In addition, the IC50 (read-out: IC50 (+IPTG)) came to 72.5 µg/mL (≈ 50.1 µM). Also, the concentration for half-maximal inhibition (IC50) (read-out: IC50 (−IPTG)) came out at 145 µg/mL (≈ 100 µM).
Take `CCC[C@@H]1C[C@@H](C(=O)N[C@@H]([C@H]2O[C@H](SC)[C@H](O)[C@@H](O)[C@H]2O)[C@@H](C)O)N(C)C1` [Lincomycin]: the “Fold Increase in Sensitivity” value is on record as 145 and the “Sensitivity Increased?” value is “Yes”. Also, the IC50 (read-out: IC50 (+IPTG)) was found to be 0.324 µg/mL (≈ 0.797 µM). Further, the half-maximal inhibitory concentration (IC50) (read-out: IC50 (−IPTG)) stood at 47.1 µg/mL (≈ 116 µM).
Take `CN[C@@H]1[C@H](O)[C@H](NC)[C@H]2O[C@@]3(O)C(=O)C[C@@H](C)O[C@H]3O[C@@H]2[C@H]1O` [Spectinomycin]: the “Sensitivity Increased?” value was “Yes”. The IC50 (read-out: IC50 (+IPTG)) is < 0.156 µg/mL. The IC50 (read-out: IC50 (−IPTG)) was 18.1 µg/mL (≈ 54.3 µM).
Take `CC1COc2c(N3CCN(C)CC3)c(F)cc3c(=O)c(C(=O)O)cn1c23` (stereo not shown) [Ofloxacin]: the “Fold Increase in Sensitivity” value was found to be 1. Further, the IC50 (read-out: IC50 (+IPTG)) was found to be 0.0459 µg/mL (≈ 0.127 µM). In addition, the IC50 (read-out: IC50 (−IPTG)) is 0.0496 µg/mL (≈ 0.137 µM).
As to `NC[C@H]1O[C@H](O[C@H]2[C@H](O)[C@@H](O[C@H]3O[C@H](CO)[C@@H](O)[C@H](N)[C@H]3O)[C@H](N)C[C@@H]2N)[C@H](N)C[C@@H]1O` [Tobramycin], the “Fold Increase in Sensitivity” value is reported as 51 and the “Sensitivity Increased?” value is “Yes”. Also, the IC50 (read-out: IC50 (+IPTG)) was 0.0706 µg/mL (≈ 0.151 µM). In addition, the IC50 (read-out: IC50 (−IPTG)) stood at 3.59 µg/mL (≈ 7.69 µM).
